Results reported in US20080051387A1, “TETRAHYDROPYRIDO[3,4-D]PYRIMIDINES AND RELATED ANALOGUES” (priority 2006, published 2008).

Each compound was assayed against T1, chimeric human H3 receptor (Homo sapiens, UniProt Q9Y5N1) (assay: Chimeric human H3 receptor screening GTP binding assay (inhibition of histamine-stimulated GTP-gamma35S binding, Example 8)). Details: 1 h; assay described in Example 8; symbol "!" in column headed Ki; read-out: Ki ("!": percent inhibition of agonist-induced GTP-gammaS binding to H3).
T1 construct: rat Galpha-i2 (Gnai2, rat); made in house; host or cells: Sf9 insect cells (baculovirus); P2 membranes
Assay type: biochemical
Outline: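 Sf9 membranes co-expressing chimeric human H3 receptor and heterotrimeric G-protein (35 μg protein) incubated 60 min at room temperature with 4 μM compound, 1 μM histamine and 125 pM GTP-gamma35S in pH 7.4 buffer with 10 μM GDP. Filter-bound radioactivity, nonspecific (10 μM GTP-gammaS) subtracted, reported as % inhibition of histamine signal.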

T1 sequence (Q9Y5N1 with tags, fused parts or gaps): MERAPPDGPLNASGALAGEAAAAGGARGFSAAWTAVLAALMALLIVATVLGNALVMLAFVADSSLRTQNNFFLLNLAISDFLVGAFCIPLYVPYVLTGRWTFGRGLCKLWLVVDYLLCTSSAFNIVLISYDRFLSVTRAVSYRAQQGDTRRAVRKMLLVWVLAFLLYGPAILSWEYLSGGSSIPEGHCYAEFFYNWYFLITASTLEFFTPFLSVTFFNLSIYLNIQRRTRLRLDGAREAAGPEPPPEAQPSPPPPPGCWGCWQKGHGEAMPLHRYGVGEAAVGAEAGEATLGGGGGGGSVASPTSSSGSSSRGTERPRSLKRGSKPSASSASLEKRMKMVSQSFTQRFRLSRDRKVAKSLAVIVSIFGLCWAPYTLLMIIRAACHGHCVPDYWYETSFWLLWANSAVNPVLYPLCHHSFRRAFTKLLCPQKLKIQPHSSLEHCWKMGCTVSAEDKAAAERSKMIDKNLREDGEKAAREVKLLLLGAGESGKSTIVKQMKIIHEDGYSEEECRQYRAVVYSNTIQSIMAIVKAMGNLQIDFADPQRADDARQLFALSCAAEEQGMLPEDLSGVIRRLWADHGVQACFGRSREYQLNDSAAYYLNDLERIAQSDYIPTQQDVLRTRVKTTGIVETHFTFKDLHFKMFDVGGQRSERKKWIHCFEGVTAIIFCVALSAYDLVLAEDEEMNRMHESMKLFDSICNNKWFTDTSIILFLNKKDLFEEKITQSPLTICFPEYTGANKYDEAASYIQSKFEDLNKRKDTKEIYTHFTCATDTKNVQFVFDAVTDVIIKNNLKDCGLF

Inhibition at 4 µM, ≥ 90%:
CSc1ccc(C(=O)N2CCc3cnc(N4CCN(C5CCC5)CC4)nc3CC2)s1 [Compound 448, 2-(4-cyclobutylpiperazin-1-yl)-7-{[5-(methylthio)-2-thienyl]carbonyl}-6,7,8,9-tetrahydro-5H-pyrimido[4,5-d]azepine]
O=C(c1ccc(Br)s1)N1CCc2cnc(N3CCN(C4CCC4)CC3)nc2CC1 [Compound 449, 7-[(5-bromo-2-thienyl)carbonyl]-2-(4-cyclobutylpiperazin-1-yl)-6,7,8,9-tetrahydro-5H-pyrimido[4,5-d]azepine]
O=C(c1sccc1Br)N1CCc2cnc(N3CCN(C4CCC4)CC3)nc2CC1 [Compound 450, 7-[(3-bromo-2-thienyl)carbonyl]-2-(4-cyclobutylpiperazin-1-yl)-6,7,8,9-tetrahydro-5H-pyrimido[4,5-d]azepine]
CCc1ccc(C(=O)N2CCc3cnc(N4CCN(C5CCC5)CC4)nc3CC2)s1 [Compound 451, 2-(4-cyclobutylpiperazin-1-yl)-7-[(5-ethyl-2-thienyl)carbonyl]-6,7,8,9-tetrahydro-5H-pyrimido[4,5-d]azepine]
CCCc1ccc(C(=O)N2CCc3cnc(N4CCN(C5CCC5)CC4)nc3CC2)s1 [Compound 452, 2-(4-cyclobutylpiperazin-1-yl)-7-[(5-propyl-2-thienyl)carbonyl]-6,7,8,9-tetrahydro-5H-pyrimido[4,5-d]azepine]
O=C(c1ccc(Cl)s1)N1CCc2cnc(N3CCN(C4CCC4)CC3)nc2CC1 [Compound 453, 7-[(5-chloro-2-thienyl)carbonyl]-2-(4-cyclobutylpiperazin-1-yl)-6,7,8,9-tetrahydro-5H-pyrimido[4,5-d]azepine]
CCCCn1c(C(=O)N2CCc3cnc(N4CCN(C5CCC5)CC4)nc3CC2)cc2ccccc21 [Compound 454, 7-[(1-butyl-1H-indol-2-yl)carbonyl]-2-(4-cyclobutylpiperazin-1-yl)-6,7,8,9-tetrahydro-5H-pyrimido[4,5-d]azepine]
O=C(c1cc2ccccc2s1)N1CCc2cnc(N3CCN(C4CCC4)CC3)nc2CC1 [Compound 455, 7-(1-benzothien-2-ylcarbonyl)-2-(4-cyclobutylpiperazin-1-yl)-6,7,8,9-tetrahydro-5H-pyrimido[4,5-d]azepine]
COc1cscc1C(=O)N1CCc2cnc(N3CCN(C4CCC4)CC3)nc2CC1 [Compound 456, 2-(4-cyclobutylpiperazin-1-yl)-7-[(4-methoxy-3-thienyl)carbonyl]-6,7,8,9-tetrahydro-5H-pyrimido[4,5-d]azepine]
O=C(c1sc2ccccc2c1Cl)N1CCc2cnc(N3CCN(C4CCC4)CC3)nc2CC1 [Compound 457, 7-[(3-chloro-1-benzothien-2-yl)carbonyl]-2-(4-cyclobutylpiperazin-1-yl)-6,7,8,9-tetrahydro-5H-pyrimido[4,5-d]azepine]
CSc1sc(C(=O)N2CCc3cnc(N4CCN(C5CCC5)CC4)nc3CC2)c2c1C=CCC2 [Compound 458, 2-(4-cyclobutylpiperazin-1-yl)-7-{[3-(methylthio)-6,7-dihydro-2-benzothien-1-yl]carbonyl}-6,7,8,9-tetrahydro-5H-pyrimido[4,5-d]azepine]
Cc1cc(C(=O)N2CCc3cnc(N4CCN(C5CCC5)CC4)nc3CC2)c(C)n1C [Compound 459, 2-(4-cyclobutylpiperazin-1-yl)-7-[(1,2,5-trimethyl-1H-pyrrol-3-yl)carbonyl]-6,7,8,9-tetrahydro-5H-pyrimido[4,5-d]azepine]
Cn1nc(C(F)(F)F)cc1-c1ccc(C(=O)N2CCc3cnc(N4CCN(C5CCC5)CC4)nc3CC2)s1 [Compound 460, 2-(4-cyclobutylpiperazin-1-yl)-7-({5-[1-methyl-3-(trifluoromethyl)-1H-pyrazol-5-yl]-2-thienyl}carbonyl)-6,7,8,9-tetrahydro-5H-pyrimido[4,5-d]azepine]
Cn1c(C(=O)N2CCc3cnc(N4CCN(C5CCC5)CC4)nc3CC2)cc2ccccc21 [Compound 461, 2-(4-cyclobutylpiperazin-1-yl)-7-[(1-methyl-1H-indol-2-yl)carbonyl]-6,7,8,9-tetrahydro-5H-pyrimido[4,5-d]azepine]
CCn1c(C(=O)N2CCc3cnc(N4CCN(C5CCC5)CC4)nc3CC2)cc2ccccc21 [Compound 462, 2-(4-cyclobutylpiperazin-1-yl)-7-[(1-ethyl-1H-indol-2-yl)carbonyl]-6,7,8,9-tetrahydro-5H-pyrimido[4,5-d]azepine]
CCCn1c(C(=O)N2CCc3cnc(N4CCN(C5CCC5)CC4)nc3CC2)cc2ccccc21 [Compound 463, 2-(4-cyclobutylpiperazin-1-yl)-7-[(1-propyl-1H-indol-2-yl)carbonyl]-6,7,8,9-tetrahydro-5H-pyrimido[4,5-d]azepine]
O=C(c1ccsc1)N1CCc2cnc(N3CCN(C4CCC4)CC3)nc2CC1 [Compound 464, 2-(4-cyclobutylpiperazin-1-yl)-7-(3-thienylcarbonyl)-6,7,8,9-tetrahydro-5H-pyrimido[4,5-d]azepine]
Cc1cc(C(=O)N2CCc3cnc(N4CCN(C5CCC5)CC4)nc3CC2)c(C)o1 [Compound 465, 2-(4-cyclobutylpiperazin-1-yl)-7-(2,5-dimethyl-3-furoyl)-6,7,8,9-tetrahydro-5H-pyrimido[4,5-d]azepine]
Cc1oc(C(C)(C)C)cc1C(=O)N1CCc2cnc(N3CCN(C4CCC4)CC3)nc2CC1 [Compound 466, 7-(5-tert-butyl-2-methyl-3-furoyl)-2-(4-cyclobutylpiperazin-1-yl)-6,7,8,9-tetrahydro-5H-pyrimido[4,5-d]azepine]
Cc1cc(C(=O)N2CCc3cnc(N4CCN(C5CCC5)CC4)nc3CC2)c(C(F)(F)F)o1 [Compound 467, 2-(4-cyclobutylpiperazin-1-yl)-7-[5-methyl-2-(trifluoromethyl)-3-furoyl]-6,7,8,9-tetrahydro-5H-pyrimido[4,5-d]azepine]
Cc1cc(C(=O)N2CCc3cnc(N4CCN(C5CCC5)CC4)nc3CC2)oc1C [Compound 468, 2-(4-cyclobutylpiperazin-1-yl)-7-(4,5-dimethyl-2-furoyl)-6,7,8,9-tetrahydro-5H-pyrimido[4,5-d]azepine]
Cc1oc(-c2ccccc2)cc1C(=O)N1CCc2cnc(N3CCN(C4CCC4)CC3)nc2CC1 [Compound 469, 2-(4-cyclobutylpiperazin-1-yl)-7-(2-methyl-5-phenyl-3-furoyl)-6,7,8,9-tetrahydro-5H-pyrimido[4,5-d]azepine]
O=C(c1cc(-c2ccc(Cl)cc2)oc1C(F)(F)F)N1CCc2cnc(N3CCN(C4CCC4)CC3)nc2CC1 [Compound 470, 7-[5-(4-chlorophenyl)-2-(trifluoromethyl)-3-furoyl]-2-(4-cyclobutylpiperazin-1-yl)-6,7,8,9-tetrahydro-5H-pyrimido[4,5-d]azepine]
Cc1oc(-c2ccc(Cl)cc2)cc1C(=O)N1CCc2cnc(N3CCN(C4CCC4)CC3)nc2CC1 [Compound 471, 7-[5-(4-chlorophenyl)-2-methyl-3-furoyl]-2-(4-cyclobutylpiperazin-1-yl)-6,7,8,9-tetrahydro-5H-pyrimido[4,5-d]azepine]
O=C(c1ccc(Oc2cc(Cl)cc(Cl)c2)o1)N1CCc2cnc(N3CCN(C4CCC4)CC3)nc2CC1 [Compound 472, 2-(4-cyclobutylpiperazin-1-yl)-7-[5-(3,5-dichlorophenoxy)-2-furoyl]-6,7,8,9-tetrahydro-5H-pyrimido[4,5-d]azepine]
O=C(c1cc2ccccc2o1)N1CCc2cnc(N3CCN(C4CCC4)CC3)nc2CC1 [Compound 473, 7-(1-benzofuran-2-ylcarbonyl)-2-(4-cyclobutylpiperazin-1-yl)-6,7,8,9-tetrahydro-5H-pyrimido[4,5-d]azepine]
O=C(c1ccc(OCC(F)(F)F)nc1)N1CCc2cnc(N3CCN(C4CCC4)CC3)nc2CC1 [Compound 474, 2-(4-cyclobutylpiperazin-1-yl)-7-{[6-(2,2,2-trifluoroethoxy)pyridin-3-yl]carbonyl}-6,7,8,9-tetrahydro-5H-pyrimido[4,5-d]azepine]
O=C(c1cncc(C#Cc2ccccc2)c1)N1CCc2cnc(N3CCN(C4CCC4)CC3)nc2CC1 [Compound 475, 2-(4-cyclobutylpiperazin-1-yl)-7-{[5-(phenylethynyl)pyridin-3-yl]carbonyl}-6,7,8,9-tetrahydro-5H-pyrimido[4,5-d]azepine]
O=C(c1cnccc1C(F)(F)F)N1CCc2cnc(N3CCN(C4CCC4)CC3)nc2CC1 [Compound 476, 2-(4-cyclobutylpiperazin-1-yl)-7-{[4-(trifluoromethyl)pyridin-3-yl]carbonyl}-6,7,8,9-tetrahydro-5H-pyrimido[4,5-d]azepine]
O=C(c1cccnc1Cl)N1CCc2cnc(N3CCN(C4CCC4)CC3)nc2CC1 [Compound 477, 7-[(2-chloropyridin-3-yl)carbonyl]-2-(4-cyclobutylpiperazin-1-yl)-6,7,8,9-tetrahydro-5H-pyrimido[4,5-d]azepine]
